In the NIST ThermoML archive (doi:10.1016/j.fluid.2016.06.011):
Numbers after ± are expanded uncertainties.

Details: Liquid; for vapor or sublimation pressure: Closed cell (Static) method; for mass density: 101.33 kPa, Vibrating tube method

OCC(F)(F)C(F)(F)C(F)(F)C(F)(F)F [2,2,3,3,4,4,5,5,5-nonafluoropentan-1-ol]
Details	mass density [kg/m3]	vapor or sublimation pressure [kPa]
278.14 K	–	0.2236 ± 0.011
278.15 K	1689.58 ± 5.6	–
279.15 K	1687.71 ± 5.6	–
280.15 K	1685.83 ± 5.6	–
281.15 K	1683.95 ± 5.6	–
282.15 K	1682.07 ± 5.5	–
283.1 K	–	0.3363 ± 0.011
283.15 K	1680.18 ± 5.5	–
284.15 K	1678.29 ± 5.5	–
285.15 K	1676.39 ± 5.5	–
286.15 K	1674.48 ± 5.5	–
287.15 K	1672.58 ± 5.5	–
288.07 K	–	0.502 ± 0.012
288.15 K	1670.67 ± 5.5	–
289.15 K	1668.76 ± 5.5	–
290.15 K	1666.84 ± 5.4	–
291.15 K	1664.91 ± 5.4	–
292.15 K	1662.98 ± 5.4	–
293.06 K	–	0.7329 ± 0.013
293.15 K	1661.05 ± 5.4	–
294.15 K	1659.11 ± 5.4	–
295.15 K	1657.16 ± 5.4	–
296.15 K	1655.22 ± 5.4	–
297.15 K	1653.26 ± 5.4	–
298.09 K	–	1.07 ± 0.016
298.15 K	1651.3 ± 5.3	–
299.15 K	1649.34 ± 5.3	–
300.15 K	1647.37 ± 5.3	–
301.15 K	1645.39 ± 5.3	–
302.15 K	1643.41 ± 5.3	–
303.1 K	–	1.531 ± 0.018
303.15 K	1641.42 ± 5.3	–
304.15 K	1639.43 ± 5.3	–
305.15 K	1637.43 ± 5.3	–
306.15 K	1635.43 ± 5.2	–
307.15 K	1633.42 ± 5.2	–
308.06 K	–	2.152 ± 0.021
308.15 K	1631.4 ± 5.2	–
309.15 K	1629.38 ± 5.2	–
310.15 K	1627.35 ± 5.2	–
311.15 K	1625.32 ± 5.2	–
312.15 K	1623.28 ± 5.2	–
313.02 K	–	2.979 ± 0.026
313.15 K	1621.23 ± 5.1	–
314.15 K	1619.17 ± 5.1	–
315.15 K	1617.12 ± 5.1	–
316.15 K	1615.05 ± 5.1	–
317.15 K	1612.98 ± 5.1	–
317.98 K	–	4.071 ± 0.032
318.15 K	1610.9 ± 5.1	–
319.15 K	1608.81 ± 5.1	–
320.15 K	1606.72 ± 5.1	–
321.15 K	1604.62 ± 5	–
322.15 K	1602.52 ± 5	–
322.99 K	–	5.496 ± 0.041
323.15 K	1600.4 ± 5	–
324.15 K	1598.29 ± 5	–
325.15 K	1596.16 ± 5	–
326.15 K	1594.03 ± 5	–
327.15 K	1591.88 ± 5	–
327.95 K	–	7.315 ± 0.047
328.15 K	1589.74 ± 4.9	–
329.15 K	1587.59 ± 4.9	–
330.15 K	1585.42 ± 4.9	–
331.15 K	1583.26 ± 4.9	–
332.15 K	1581.08 ± 4.9	–
333.15 K	1578.9 ± 4.9	–
334.15 K	1576.7 ± 4.9	–
335.15 K	1574.51 ± 4.9	–
336.15 K	1572.3 ± 4.8	–
337.15 K	1570.09 ± 4.8	–
338.15 K	1567.87 ± 4.8	–
339.15 K	1565.64 ± 4.8	–
340.15 K	1563.41 ± 4.8	–
341.15 K	1561.17 ± 4.8	–
342.15 K	1558.91 ± 4.8	–
343.15 K	1556.65 ± 4.7	–
344.15 K	1554.39 ± 4.7	–
345.15 K	1552.11 ± 4.7	–
346.14 K	1549.83 ± 4.7	–
347.15 K	1547.45 ± 4.7	–
348.15 K	1545.15 ± 4.7	–
349.15 K	1542.85 ± 4.7	–
350.15 K	1540.53 ± 4.6	–
351.15 K	1538.2 ± 4.6	–
352.15 K	1535.87 ± 4.6	–
353.15 K	1533.52 ± 4.6	–

OCC(F)(F)C(F)(F)C(F)(F)C(F)(F)C(F)(F)F [2,2,3,3,4,4,5,5,6,6,6-undecafluorohexan-1-ol]
Details	mass density [kg/m3]	vapor or sublimation pressure [kPa]
278.14 K	–	0.0688 ± 0.01
278.15 K	1746.4 ± 2.8	–
279.15 K	1744.56 ± 2.8	–
280.15 K	1742.69 ± 2.8	–
281.15 K	1740.82 ± 2.8	–
282.15 K	1738.95 ± 2.8	–
283.1 K	–	0.1098 ± 0.01
283.15 K	1737.07 ± 2.8	–
284.15 K	1735.19 ± 2.8	–
285.15 K	1733.3 ± 2.7	–
286.15 K	1731.41 ± 2.7	–
287.15 K	1729.52 ± 2.7	–
288.08 K	–	0.1712 ± 0.01
288.15 K	1727.62 ± 2.7	–
289.15 K	1725.71 ± 2.7	–
290.15 K	1723.81 ± 2.7	–
291.15 K	1721.89 ± 2.7	–
292.15 K	1719.98 ± 2.7	–
293.08 K	–	0.2615 ± 0.011
293.15 K	1718.06 ± 2.7	–
294.15 K	1716.13 ± 2.7	–
295.15 K	1714.2 ± 2.7	–
296.15 K	1712.27 ± 2.7	–
297.15 K	1710.32 ± 2.7	–
298.13 K	–	0.3944 ± 0.011
298.15 K	1708.38 ± 2.7	–
299.15 K	1706.43 ± 2.7	–
300.15 K	1704.47 ± 2.7	–
301.15 K	1702.5 ± 2.6	–
302.15 K	1700.54 ± 2.6	–
303.1 K	–	0.5819 ± 0.012
303.15 K	1698.57 ± 2.6	–
304.15 K	1696.59 ± 2.6	–
305.15 K	1694.61 ± 2.6	–
306.15 K	1692.62 ± 2.6	–
307.15 K	1690.62 ± 2.6	–
308.06 K	–	0.8405 ± 0.014
308.15 K	1688.62 ± 2.6	–
309.15 K	1686.62 ± 2.6	–
310.15 K	1684.61 ± 2.6	–
311.15 K	1682.59 ± 2.6	–
312.15 K	1680.57 ± 2.6	–
313.01 K	–	1.205 ± 0.017
313.15 K	1678.54 ± 2.6	–
314.15 K	1676.51 ± 2.6	–
315.15 K	1674.47 ± 2.6	–
316.15 K	1672.43 ± 2.6	–
317.15 K	1670.38 ± 2.5	–
317.98 K	–	1.708 ± 0.018
318.15 K	1668.32 ± 2.5	–
319.15 K	1666.26 ± 2.5	–
320.15 K	1664.19 ± 2.5	–
321.15 K	1662.11 ± 2.5	–
322.15 K	1660.03 ± 2.5	–
322.93 K	–	2.349 ± 0.022
323.15 K	1657.95 ± 2.5	–
324.15 K	1655.85 ± 2.5	–
325.15 K	1653.75 ± 2.5	–
326.15 K	1651.65 ± 2.5	–
327.15 K	1649.54 ± 2.5	–
327.93 K	–	3.25 ± 0.025
328.15 K	1647.42 ± 2.5	–
329.15 K	1645.29 ± 2.5	–
330.15 K	1643.16 ± 2.5	–
331.15 K	1641.02 ± 2.5	–
332.15 K	1638.87 ± 2.5	–
333.15 K	1636.72 ± 2.4	–
334.15 K	1634.57 ± 2.4	–
335.15 K	1632.41 ± 2.4	–
336.15 K	1630.23 ± 2.4	–
337.15 K	1628.06 ± 2.4	–
338.15 K	1625.88 ± 2.4	–
339.15 K	1623.69 ± 2.4	–
340.15 K	1621.49 ± 2.4	–
341.15 K	1619.29 ± 2.4	–
342.15 K	1617.08 ± 2.4	–
343.15 K	1614.86 ± 2.4	–
344.15 K	1612.64 ± 2.4	–
345.15 K	1610.41 ± 2.4	–
346.15 K	1608.17 ± 2.4	–
347.15 K	1605.92 ± 2.4	–
348.15 K	1603.67 ± 2.3	–
